In US20210221822A1, “TRICYCLIC DERIVATIVES INHIBITOR, PREPARATION METHOD, AND APPLICATIONS THEREOF” (Jiangsu Hansoh Pharmaceutical Group Co., Ltd., priority 2018, published 2021):

Columns and labels:
PI3Kβ = molecular target: T1, PI3Kβ (Homo sapiens, UniProt P42338); assay: ADP-Glo lipid kinase assay, PI3Kβ kinase activity; format: biochemical; conditions: 0.4 nM enzyme, 90 min, 100 μM ATP
T1 construct: purchased Carna 11-102
Experimental: (§1) Experimental method: Promega's ADP-Glo lipid kinase assay method (Promega #V9102) was applied in this experiment. Lipid kinase PI3Kα/β/γ/δ catalyzed the generation of ADP from ATP in the presence of the substrate PIP2: 3PS and ATP. The lipid kinase activity was characterized by measuring the ADP content in the reaction, and the half inhibitory concentration IC50 of the compound on inhibiting PI3Kα/β/γ/δ kinase activity was thus obtained.
(§2) The kinase reaction was carried out in a white 384-well plate (Perkin Elmer #6007299). 2 μL of the compound solution of different concentrations diluted with ddH2O containing 1% DMSO was added to each well. 2 μL of ddH2O containing 1% DMSO was added to the positive control well. 2 μL of 0.1-2 nM PI3K kinase solution diluted with 5× kinase buffer (HEPES 250 mM, MgCl2 15 mM, NaCl 250 mM, BSA 0.05%) was added to each well. 2 μL of 5× kinase buffer was added to the negative control well. 4 μL of 50 μM substrate PIP2: 3PS (Promega #V1701) formulated with 10× Dilution buffer and ddH2O was added to all wells. Finally, 2 μL of […] ATP solution diluted with water was added to start the reaction. After the reaction was carried out at room temperature for 90 to 120 minutes, 10 μL of ADP-Glo Reagent (containing 10 mM MgCl2) was added to each well, and reacted at room temperature for 60 minutes to remove excess ATP in the reaction. 20 μL of Kinase Detection Reagent was added to each well, and reacted at room temperature in the dark for 20 minutes. The chemiluminescence value was measured by the BioTek Synergy H1 microplate reader.
(§3) The percentage inhibition data of the compound-treated well was calculated through the positive control well (DMSO control well) and negative control well (no kinase added) on the plate {% inhibition rate=100−[(test compound value−negative control value)]/(positive control value−negative control value)×100}. The IC50 value was calculated by fitting the data of different concentrations and corresponding percentage inhibition rates to a four-parameter nonlinear logic formula with GraphPad prism.

PI3Kγ = molecular target: T2, PI3Kγ (Homo sapiens, UniProt P48736); assay: ADP-Glo lipid kinase assay, PI3Kγ kinase activity; format: biochemical; conditions: 0.4 nM enzyme, 120 min, 50 μM ATP
T2 construct: purchased Thermofisher PV4786
Experimental: as §1, §2, §3

PI3Kδ = molecular target: T3, PI3Kδ (Homo sapiens, UniProt O00329); assay: ADP-Glo lipid kinase assay, PI3Kδ kinase activity; format: biochemical; conditions: 0.1 nM enzyme, 90 min, 100 μM ATP
T3 construct: purchased Carna 11-103
Experimental: as §1, §2, §3

PI3Kα = molecular target: T4, PI3Kα (Homo sapiens, UniProt P42336); assay: ADP-Glo lipid kinase assay, PI3Kα kinase activity; format: biochemical; conditions: for IC50: ADP-Glo, 0.1 nM enzyme, 120 min, 50 μM ATP; for Selectivity of PI3Kα vs PI3Kβ: ratio of IC50 PI3Kβ to IC50 PI3Kα; for Selectivity of PI3Kα vs PI3Kγ: ratio of IC50 PI3Kγ to IC50 PI3Kα; for Selectivity of PI3Kα vs PI3Kδ: ratio of IC50 PI3Kδ to IC50 PI3Kα
T4 construct: purchased Promega V1721
Experimental: as §1, §2, §3

[1] = Pharmacokinetic (PK) assay in mice; format: in vivo; conditions: male, Balb/c, mouse, plasma, po, single intragastric 5 mg/kg; for AUC(0-t): read-out: Area under curve AUC0-t; for AUC(0-inf): read-out: Area under curve AUC0-∞; for half-life: read-out: Half-life t1/2(h) (converted); for MRT: read-out: Mean residence time MRT; for Tmax: read-out: Peak time tmax; for Cmax: read-out: Plasma concentration Cmax
Experimental: The pharmacokinetic assay of the preferred compounds of the examples of the present invention in mice was carried out in Balb/c male mice (Shanghai Jiesijie Laboratory Animal Co., LTD). • Administration mode: single intragastric administration. • Administration dose: 5 mg/10 ml/kg (body weight). • Formulation: the compound was dissolved in 0.5% CMC-Na by ultrasound to obtain a clear solution or homogeneous suspension. • Sampling points: 0.5, 1, 2, 4, 6, 8 and 24 hours after administration. • Sample process: • 1) 0.1 mL of blood was taken from the orbit, placed in a K2-EDTA tube, and centrifuged for 5 to 20 minutes at room temperature at 1000 to 3000×g to separate the plasma, which was then stored at −80° C. • 2) 160 uL of acetonitrile was added to 40 uL of plasma sample for precipitation, and then the mixture was centrifuged for 5 to 20 minutes at 500 to 2000×g. • 3) 100 uL of processed supernatant was taken and analyzed by LC/MS/MS assay to determine the concentration of the test compound. • LC-MS/MS assay: • Liquid chromatography condition: Shimadzu LC-20AD pump • Mass spectrometry condition: AB Sciex API 4000 mass spectrometer • Chromatographic column: phenomenex Gemiu 5 μm C18 50×4.6 mm • Mobile phase: solution A was 0.1% aqueous formic acid solution, and solution B was acetonitrile • Flow rate: 0.8 mL/min • Elution time: 0-4 minutes gradient elution • Pharmacokinetics: […]
The main parameters were calculated using WinNonlin 6.1.

T4 sequence (P42336 whole entry): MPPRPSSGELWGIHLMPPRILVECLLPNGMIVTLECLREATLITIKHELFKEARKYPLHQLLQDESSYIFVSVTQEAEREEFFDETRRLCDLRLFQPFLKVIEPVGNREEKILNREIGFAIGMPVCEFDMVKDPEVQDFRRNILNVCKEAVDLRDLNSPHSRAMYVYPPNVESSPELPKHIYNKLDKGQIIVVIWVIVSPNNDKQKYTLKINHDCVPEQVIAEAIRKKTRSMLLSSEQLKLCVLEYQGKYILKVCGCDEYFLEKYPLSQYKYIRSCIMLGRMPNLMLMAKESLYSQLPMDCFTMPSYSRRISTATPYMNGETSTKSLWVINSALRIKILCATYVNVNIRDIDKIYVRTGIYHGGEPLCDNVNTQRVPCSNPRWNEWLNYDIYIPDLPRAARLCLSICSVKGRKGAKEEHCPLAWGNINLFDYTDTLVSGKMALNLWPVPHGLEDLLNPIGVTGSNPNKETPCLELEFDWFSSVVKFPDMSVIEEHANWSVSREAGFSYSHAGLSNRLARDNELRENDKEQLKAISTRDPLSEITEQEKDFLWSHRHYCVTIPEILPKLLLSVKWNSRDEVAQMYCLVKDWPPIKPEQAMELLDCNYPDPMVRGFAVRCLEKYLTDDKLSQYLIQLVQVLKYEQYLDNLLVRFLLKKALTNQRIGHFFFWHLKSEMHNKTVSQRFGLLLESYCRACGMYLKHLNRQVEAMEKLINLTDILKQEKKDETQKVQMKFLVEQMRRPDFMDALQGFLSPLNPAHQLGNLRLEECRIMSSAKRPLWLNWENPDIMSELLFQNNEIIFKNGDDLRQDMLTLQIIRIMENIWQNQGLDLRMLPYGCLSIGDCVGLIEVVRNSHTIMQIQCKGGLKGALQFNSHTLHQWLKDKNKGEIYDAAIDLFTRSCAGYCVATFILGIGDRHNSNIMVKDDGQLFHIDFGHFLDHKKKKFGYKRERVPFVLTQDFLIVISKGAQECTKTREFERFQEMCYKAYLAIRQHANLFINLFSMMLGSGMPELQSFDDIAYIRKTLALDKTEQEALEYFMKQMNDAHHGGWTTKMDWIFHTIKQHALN
T4 sequence (P27986 whole entry partner): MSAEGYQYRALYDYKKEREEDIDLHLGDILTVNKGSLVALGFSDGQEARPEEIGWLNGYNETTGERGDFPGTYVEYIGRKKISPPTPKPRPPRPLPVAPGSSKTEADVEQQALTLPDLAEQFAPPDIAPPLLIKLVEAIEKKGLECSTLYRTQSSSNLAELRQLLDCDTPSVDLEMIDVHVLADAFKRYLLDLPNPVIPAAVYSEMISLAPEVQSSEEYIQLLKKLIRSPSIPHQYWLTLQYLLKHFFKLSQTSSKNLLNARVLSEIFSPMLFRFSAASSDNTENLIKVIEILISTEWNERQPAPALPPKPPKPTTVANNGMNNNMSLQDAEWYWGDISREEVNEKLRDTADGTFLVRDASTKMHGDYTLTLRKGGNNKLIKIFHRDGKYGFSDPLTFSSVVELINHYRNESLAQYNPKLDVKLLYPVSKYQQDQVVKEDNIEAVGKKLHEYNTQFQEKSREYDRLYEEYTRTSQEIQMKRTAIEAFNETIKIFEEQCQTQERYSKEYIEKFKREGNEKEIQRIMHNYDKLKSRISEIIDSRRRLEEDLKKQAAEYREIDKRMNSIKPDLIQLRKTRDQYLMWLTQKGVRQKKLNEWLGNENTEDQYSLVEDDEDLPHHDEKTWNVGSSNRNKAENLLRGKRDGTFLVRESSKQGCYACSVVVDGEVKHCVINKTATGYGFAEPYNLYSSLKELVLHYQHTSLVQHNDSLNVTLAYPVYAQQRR
T2 sequence (P48736 whole entry): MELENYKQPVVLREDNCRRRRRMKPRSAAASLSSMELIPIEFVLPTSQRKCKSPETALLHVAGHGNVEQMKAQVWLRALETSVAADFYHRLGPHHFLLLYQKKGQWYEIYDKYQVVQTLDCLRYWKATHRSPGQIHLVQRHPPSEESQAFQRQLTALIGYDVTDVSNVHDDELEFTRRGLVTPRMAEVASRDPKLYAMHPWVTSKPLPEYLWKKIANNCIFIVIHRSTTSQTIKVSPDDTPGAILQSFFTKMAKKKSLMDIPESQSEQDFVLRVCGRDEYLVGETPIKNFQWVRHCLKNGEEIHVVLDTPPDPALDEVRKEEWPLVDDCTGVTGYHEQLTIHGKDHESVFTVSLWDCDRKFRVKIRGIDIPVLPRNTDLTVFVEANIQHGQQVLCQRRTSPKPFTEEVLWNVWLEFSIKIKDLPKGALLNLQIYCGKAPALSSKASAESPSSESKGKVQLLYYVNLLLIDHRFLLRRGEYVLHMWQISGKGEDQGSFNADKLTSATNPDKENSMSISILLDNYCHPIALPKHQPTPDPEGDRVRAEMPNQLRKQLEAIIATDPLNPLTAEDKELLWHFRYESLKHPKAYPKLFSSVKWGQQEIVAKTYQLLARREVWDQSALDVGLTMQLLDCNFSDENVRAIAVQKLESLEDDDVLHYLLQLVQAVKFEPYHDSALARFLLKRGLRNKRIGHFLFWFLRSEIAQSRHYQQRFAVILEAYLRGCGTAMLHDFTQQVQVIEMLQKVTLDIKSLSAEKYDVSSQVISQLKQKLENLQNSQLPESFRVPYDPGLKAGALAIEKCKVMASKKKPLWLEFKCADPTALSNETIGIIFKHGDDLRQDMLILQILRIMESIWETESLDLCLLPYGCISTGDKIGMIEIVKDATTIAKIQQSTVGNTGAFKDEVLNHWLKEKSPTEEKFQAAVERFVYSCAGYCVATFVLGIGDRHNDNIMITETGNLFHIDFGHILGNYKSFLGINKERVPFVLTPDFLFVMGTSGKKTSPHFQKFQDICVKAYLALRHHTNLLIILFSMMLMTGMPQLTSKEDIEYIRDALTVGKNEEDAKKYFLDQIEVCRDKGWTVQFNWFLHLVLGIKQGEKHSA
T3 sequence (O00329 whole entry): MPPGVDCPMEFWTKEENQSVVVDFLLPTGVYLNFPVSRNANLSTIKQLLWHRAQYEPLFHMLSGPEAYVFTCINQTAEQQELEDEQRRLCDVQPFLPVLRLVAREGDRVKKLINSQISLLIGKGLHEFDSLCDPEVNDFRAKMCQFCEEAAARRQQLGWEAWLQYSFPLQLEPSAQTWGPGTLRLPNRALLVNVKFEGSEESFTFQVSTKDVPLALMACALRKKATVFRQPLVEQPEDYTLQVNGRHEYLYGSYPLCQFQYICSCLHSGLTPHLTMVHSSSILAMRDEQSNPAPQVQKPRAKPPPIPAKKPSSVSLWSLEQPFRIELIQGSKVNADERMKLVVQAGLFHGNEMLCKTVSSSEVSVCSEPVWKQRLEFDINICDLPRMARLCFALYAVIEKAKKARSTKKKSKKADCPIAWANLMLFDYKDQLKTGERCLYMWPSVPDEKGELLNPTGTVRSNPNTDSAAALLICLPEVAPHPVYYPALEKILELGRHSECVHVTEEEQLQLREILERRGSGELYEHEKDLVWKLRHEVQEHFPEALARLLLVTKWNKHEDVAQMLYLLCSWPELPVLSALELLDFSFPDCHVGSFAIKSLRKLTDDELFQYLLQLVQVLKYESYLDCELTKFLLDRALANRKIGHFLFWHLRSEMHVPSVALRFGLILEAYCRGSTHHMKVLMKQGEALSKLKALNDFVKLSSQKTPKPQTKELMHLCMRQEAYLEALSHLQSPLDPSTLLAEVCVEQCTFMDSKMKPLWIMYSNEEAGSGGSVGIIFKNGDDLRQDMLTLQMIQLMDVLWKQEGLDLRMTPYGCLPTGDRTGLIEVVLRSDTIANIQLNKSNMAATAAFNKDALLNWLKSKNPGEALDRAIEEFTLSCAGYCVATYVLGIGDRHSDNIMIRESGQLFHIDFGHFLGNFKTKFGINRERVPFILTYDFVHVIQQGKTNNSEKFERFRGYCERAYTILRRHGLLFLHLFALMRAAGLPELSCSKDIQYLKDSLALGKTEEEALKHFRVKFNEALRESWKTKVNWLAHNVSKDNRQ
T3 sequence (P27986 whole entry partner): as the sequence (P27986 whole entry partner) above
T1 sequence (P42338 whole entry): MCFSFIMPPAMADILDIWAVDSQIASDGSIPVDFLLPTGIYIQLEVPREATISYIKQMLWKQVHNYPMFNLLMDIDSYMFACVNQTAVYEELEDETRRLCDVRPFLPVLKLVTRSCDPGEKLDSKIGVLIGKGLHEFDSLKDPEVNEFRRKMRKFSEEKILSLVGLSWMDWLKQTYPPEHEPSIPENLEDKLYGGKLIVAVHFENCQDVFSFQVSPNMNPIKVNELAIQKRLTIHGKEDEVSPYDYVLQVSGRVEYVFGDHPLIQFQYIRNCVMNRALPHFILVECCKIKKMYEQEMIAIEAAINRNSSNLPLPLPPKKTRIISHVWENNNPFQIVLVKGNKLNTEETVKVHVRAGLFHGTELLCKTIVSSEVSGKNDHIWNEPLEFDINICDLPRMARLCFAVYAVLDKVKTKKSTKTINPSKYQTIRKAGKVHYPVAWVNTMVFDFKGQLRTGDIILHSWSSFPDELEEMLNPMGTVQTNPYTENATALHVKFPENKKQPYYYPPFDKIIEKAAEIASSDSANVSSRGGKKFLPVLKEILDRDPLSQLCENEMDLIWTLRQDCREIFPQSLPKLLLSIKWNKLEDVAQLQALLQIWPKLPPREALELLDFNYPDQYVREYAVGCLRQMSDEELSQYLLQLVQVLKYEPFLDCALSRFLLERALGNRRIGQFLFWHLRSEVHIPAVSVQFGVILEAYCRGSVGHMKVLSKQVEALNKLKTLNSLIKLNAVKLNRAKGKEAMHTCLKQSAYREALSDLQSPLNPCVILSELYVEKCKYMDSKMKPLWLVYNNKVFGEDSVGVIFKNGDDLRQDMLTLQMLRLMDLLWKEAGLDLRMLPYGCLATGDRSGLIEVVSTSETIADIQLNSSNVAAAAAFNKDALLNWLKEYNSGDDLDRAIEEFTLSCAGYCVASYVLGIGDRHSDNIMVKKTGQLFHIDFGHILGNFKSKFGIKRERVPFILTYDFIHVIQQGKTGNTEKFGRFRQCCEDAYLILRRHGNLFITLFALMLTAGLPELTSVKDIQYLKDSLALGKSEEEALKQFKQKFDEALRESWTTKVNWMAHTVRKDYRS
T1 sequence (P27986 whole entry partner): as the sequence (P27986 whole entry partner) above

SMILES	IC50 (PI3Kβ) [nM]	IC50 (PI3Kγ) [nM]	IC50 (PI3Kδ) [nM]	IC50 (PI3Kα) [nM]	Selectivity of PI3Kα vs PI3Kβ (PI3Kα)	AUC(0-t) [1] [ng·h/mL]	AUC(0-inf) [1] [ng·h/mL]	half-life [1] [h]	MRT [1] [h]	Tmax [1] [h]	Cmax [1] [ng/mL]	Selectivity of PI3Kα vs PI3Kγ (PI3Kα)	Selectivity of PI3Kα vs PI3Kδ (PI3Kα)
CC(Nc1ccc2c(c1)OCCn1cc(N3C(=O)OC(C)[C@H]3C(F)F)nc1-2)C(N)=O (stereo in doubt) [Example 55, (R)-2-((2-((4S,5R)-4-(difluoromethyl)-5-methyl-2-oxooxazolidin-3-yl)-5,6-dihydrobenzo[f]imidazo[1,2-d][1,4]oxazepin-9-yl)amino)propanamide]	1870	363	213	1.7									
C[C@H](Nc1ccc2c(c1)OCCn1c-2nc(N2C(=O)OC[C@H]2C(F)F)c1F)C(N)=O [Example 10, (S)-2-((2-((S)-4-(difluoromethyl)-2-oxooxazolidin-3-yl)-3-fluoro-5,6-dihydrobenzo[f]imidazo[1,2-d][1,4]oxazepin-9-yl)amino)propanamide]	> 10000	1790	1400	7.9	>1266								
C[C@H](Nc1ccc2c(c1)OCCn1cc(N3C(=O)N(C)C[C@H]3C(F)F)nc1-2)C(N)=O [Example 53, (S)-2-((2-((S)-5-(difluoromethyl)-3-methyl-2-oxoimidazolidin-1-yl)-5,6-dihydrobenzo[f]imidazo[1,2-d][1,4]oxazepin-9-yl)amino)propanamide]	6190	402	373	5		1280	1290	0.8	1.2	0.5	1090	80	
C[C@H](Nc1ccc2c(c1)OCCn1cc(N3CC(F)(F)COC3=O)nc1-2)C(N)=O [Example 66, (S)-2-((2-(5,5-difluoro-2-oxo-1,3-oxazinan-3-yl)-5,6-dihydrobenzo[f]imidazo[1,2-d][1,4]oxazepin-9-yl)amino)propanamide]	4570	2080	653	9.3	492							223	70
C[C@H](Nc1cc(F)c2c(c1)OCCn1cc(N3C(=O)OC[C@H]3C(F)F)nc1-2)C(N)=O [Example 78, (S)-2-((2-((S)-4-(difluoromethyl)-2-oxooxazolidin-3-yl)-11-fluoro-5,6-dihydrobenzo[f]imidazo[1,2-d][1,4]oxazepin-9-yl)amino)propanamide]	2790	510	459	5.2									
COC[C@H](Nc1ccc2c(c1)OCCn1cc(N3C(=O)OC[C@H]3C(F)F)nc1-2)C(N)=O [Example 90, (S)-2-((2-((S)-4-(difluoromethyl)-2-oxooxazolidin-3-yl)-5,6-dihydrobenzo[f]imidazo[1,2-d][1,4]oxazepin-9-yl)amino)-3-methoxypropanamide]						2070	2090	1	1.6	0.5	1290		
C[C@H](Nc1ccc2c(c1)OCCn1cc(N3C(=O)CC[C@H]3C(F)F)nc1-2)C(N)=O [Example 97, (S)-2-((2-((S)-2-(difluoromethyl)-5-oxopyrrolidin-1-yl)-5,6-dihydrobenzo[f]imidazo[1,2-d][1,4]oxazepin-9-yl)amino)propanamide]	1650	510	190	2.1									90
C[C@H](Nc1ccc2c(c1)OCCn1cc(N3C(=O)CC[C@H]3CC#N)nc1-2)C(N)=O [Example 117, (S)-2-((2-((S)-2-(cyanomethyl)-5-oxopyrrolidin-1-yl)-5,6-dihydrobenzo[f]imidazo[1,2-d][1,4]oxazepin-9-yl)amino)propanamide]	1950	505	280	2.5	779							202	112

Continued, values first:

IC50 (PI3Kβ) [nM]	IC50 (PI3Kγ) [nM]	IC50 (PI3Kδ) [nM]	IC50 (PI3Kα) [nM]	Selectivity of PI3Kα vs PI3Kβ (PI3Kα)	AUC(0-t) [1] [ng·h/mL]	AUC(0-inf) [1] [ng·h/mL]	half-life [1] [h]	MRT [1] [h]	Tmax [1] [h]	Cmax [1] [ng/mL]	Selectivity of PI3Kα vs PI3Kγ (PI3Kα)	Selectivity of PI3Kα vs PI3Kδ (PI3Kα)	SMILES
1430	447	410	4										CC(C)[C@H](Nc1ccc2c(c1)OCCn1cc(N3C(=O)OC[C@H]3C(F)F)nc1-2)C(N)=O [Example 38, (S)-2-((2-((S)-4-(difluoromethyl)-2-oxooxazolidin-3-yl)-5,6-dihydrobenzo[f]imidazo[1,2-d][1,4]oxazepin-9-yl)amino)-3-methylbutanamide]
283	557	25	0.86		3440	3500	1	1.8	0.5	2060			C[C@@H](C(N)=O)N(C)c1ccc2c(c1)OCCn1cc(N3C(=O)OC[C@H]3C(F)F)nc1-2 [Example 43, (S)-2-((2-((S)-4-(difluoromethyl)-2-oxooxazolidin-3-yl)-5,6-dihydrobenzo[f]imidazo[1,2-d][1,4]oxazepin-9-yl)(methyl)amino)propanamide]
1070	1150	348	6.8										COC[C@H](Nc1ccc2c(c1F)OCCn1cc(N3C(=O)SC[C@H]3C(F)F)nc1-2)C(N)=O [Example 109, (S)-2-((2-((R)-4-(difluoromethyl)-2-oxothiazolidin-3-yl)-8-fluoro-5,6-dihydrobenzo[f]imidazo[1,2-d][1,4]oxazepin-9-yl)amino)-3-methoxypropanamide]
523	478	69	2.2										C[C@@H](C(N)=O)N(C)c1ccc2c(c1)OCCn1cc(N3C(=O)SC[C@H]3C(F)F)nc1-2 [Example 112, (S)-2-((2-((R)-4-(difluoromethyl)-2-oxothiazolidin-3-yl)-5,6-dihydrobenzo[f]imidazo[1,2-d][1,4]oxazepin-9-yl)(methyl)amino)propanamide]
988	530	200	4.7	210							113	43	COC[C@H](Nc1ccc2c(c1)OCCn1cc(N3C(=O)OC[C@H]3CC#N)nc1-2)C(N)=O [Example 120, (S)-2-((2-((R)-4-(cyanomethyl)-2-oxooxazolidin-3-yl)-5,6-dihydrobenzo[f]imidazo[1,2-d][1,4]oxazepin-9-yl)amino)-3-methoxypropanamide]
